Experiments:
[1] = tested on: human saphenous vein (HSV); assay: Muscle bath: sodium nitroprusside-induced relaxation of human saphenous vein; format: cell-based; conditions: 50 or 100 μM pretreatment; data not shown
Method: De-identified, discarded segments of human saphenous vein (HSV) were collected from consented patients undergoing coronary artery or peripheral vascular bypass surgeries. HSV segments were stored in a saline solution until the end of the surgical procedure, at which time they were placed in cold transplant harvest buffer (100 mM potassium lactobionate, 25 mM KH2PO4, 5 mM MgSO4, 30 mM Raffinose, 5 mM Adenosine, 3 mM Glutathione, 1 mM Allopurinol, 50 g/L Hydroxyethyl starch, pH 7.4). The vessels were used within 24 hours of harvest. Using sterile technique, HSV segments were transferred to a 60-mm Petri dish under a sterile hood. The edges (0.5 mm) of each segment were removed with a blade and excess adventitial tissue and fat removed with minimal manipulation. HSV segments were cut into consecutive rings of approximately 1.0 mm in width to be utilized for organ culture or muscle bath experiments. Two rings from each segment were immediately fixed in 10% formalin at 37° C. for 30 min to obtain pre-culture intimal thickening measurements.
In preparation for testing vein segment functional viability, HSV rings were weighed and their lengths recorded. To focus on smooth muscle responses, the endothelium was mechanically denuded by rolling the luminal surface of each ring at the tip of a fine vascular forceps before suspension in a muscle bath containing a bicarbonate buffer (120 mM NaCl, 4.7 mM KCl, 1.0 mM MgSO4, 1.0 mM NaH2PO4, 10 mM glucose, 1.5 mM CaCl2, and 25 mM […], pH 7.4) equilibrated with 95% O2 and 5% CO2 at 37° C. The rings were stretched and the length progressively adjusted until maximal tension was obtained. […] Rings were maintained at a resting tension of 1 g, which produces maximal responses to contractile agonists as previously determined, and equilibrated for 2 hours in buffer. […]
HSV rings were first contracted with 110 mM KCl (with equimolar replacement of NaCl in bicarbonate buffer) and the generated force was measured. […] Rings were relaxed with a cumulative log dose of sodium nitroprusside (SNP), a nitric oxide donor, and the force generated was recorded. […] Rings were then incubated with either buffer alone or buffer plus 100 μM of MMI-0100 ([…] (SEQ ID NO: 1)) for 2 hours, followed by treatment with the same doses of PE and SNP, and the forces generated again recorded. Measured force was normalized for ring weight and length and percent relaxation was calculated; force generated with 10^−6 M of PE was set as 0% relaxation.
The enhancing effect of MMI-0100 ([…]; SEQ ID NO: 1) on smooth muscle relaxation was examined by pre-treating harvested human saphenous vein (HSV) with MMI-0100 ([…]; SEQ ID NO: 1) before SNP treatment. […] Percentage of relaxation at 0, 0.01, 0.1, and 1.0 μM of SNP was measured. […]

[2] = tested on: immortalized human pleural mesothelial cells (ATCC CRL-9444); assay: IL-6 ELISA in TNF-α-stimulated mesothelial cells; format: cell-based
Method: Expression of inflammatory cytokines was induced by applying 1 or 10 ng/ml of TNF-α to cultured mesothelial cells. Briefly, immortalized human pleural mesothelial cells (ATCC CRL-9444) were grown in Medium199 with Earle's BSS, 0.75 mM L-glutamine (Mediatech Inc., Manassas, Va.), 1.25 g/l sodium bicarbonate (Sigma), 3.3 nM epidermal growth factor (EGF) (MBL International, Woburn, Mass.), 40 nM hydrocortisone (Sigma), 870 nM insulin (MBL International), 20 mM HEPES (Sigma), trace elements mixture B (Mediatech Inc., Waltham, Mass.), 10% fetal bovine serum (FBS) (Hyclone), and 1% penicillin/streptomycin (Mediatech Inc., Waltham, Mass.). […] Human mesothelial cells were treated with two different concentrations (1 and 10 ng/mL) of TNF-α for 2, 6, 12, and 24 hours (data not shown). […] Without TNF-α stimulation, mesothelial cells made negligible amounts of IL-6. […] In subsequent experiments designed to determine whether the MMI-0100 peptide ([…]; SEQ ID NO: 1) could reduce TNF-α induced IL-6 expression, both 1 and 10 ng/mL of TNF-α were selected as stimuli. 10 ng/mL of TNF-α is regarded as more physiologically relevant for mesothelial cells.
Prior to cytokine and/or inhibitor treatment, cells were allowed to acclimate in serum-free media consisting of only Medium199 with Earle's BSS, 0.75 mM L-glutamine, 1.25 g/l sodium bicarbonate, 20 mM HEPES, trace elements mixture B (Mediatech Inc., Waltham, Mass.), and 1% penicillin/streptomycin (Mediatech Inc., Waltham, Mass.) for 24 hours. […] Average concentration of IL-6 (pg/ml per 10^5 cells) at each time was determined by cytokine-specific ELISA.

[3] = tested on: MK2; conditions: known small molecule inhibitor of MK2; ATP competitive; cited from earlier work
[4] = tested on: Ca2+/calmodulin-dependent protein kinase II (CaMKII); conditions: cited from earlier work
[5] = tested on: PKA; conditions: AIP 1 μM; cited from earlier work
[6] = tested on: PKC; conditions: AIP 1 μM; cited from earlier work
[7] = target: CaMKIV (Homo sapiens, UniProt Q16566); conditions: AIP 1 μM; cited from earlier work
Chain of CaMKIV (Q16566 whole entry, species assumed): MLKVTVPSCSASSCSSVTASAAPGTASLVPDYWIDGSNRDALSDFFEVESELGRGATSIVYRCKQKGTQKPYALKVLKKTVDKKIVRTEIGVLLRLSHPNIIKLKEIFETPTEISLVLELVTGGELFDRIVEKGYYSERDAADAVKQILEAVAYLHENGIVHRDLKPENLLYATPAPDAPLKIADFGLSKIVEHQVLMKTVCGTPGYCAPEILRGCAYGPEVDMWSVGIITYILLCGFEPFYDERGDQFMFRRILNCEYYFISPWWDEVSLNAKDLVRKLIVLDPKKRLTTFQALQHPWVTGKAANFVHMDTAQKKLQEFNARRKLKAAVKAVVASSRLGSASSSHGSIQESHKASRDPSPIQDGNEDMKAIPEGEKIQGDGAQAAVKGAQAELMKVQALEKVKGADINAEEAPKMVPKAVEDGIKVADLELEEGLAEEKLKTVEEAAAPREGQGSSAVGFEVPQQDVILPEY

Compound: YARAAARQARA (mammal) [PTD peptide, control peptide (transduction domain, PTD peptide), reference compound]
- relaxation response vs untreated control [1]: no significant difference in relaxation response

Compound: CC(=O)c1c(O)c(C)c(O)c(Cc2c(O)c3c(c(C(=O)/C=C/c4ccccc4)c2O)OC(C)(C)C=C3)c1O [Rottlerin, reference compound]
- IL-6 expression ([2]; TNF-α 1 ng/mL, 6 hrs): significantly increased IL-6 expression above that induced by TNF-α alone
- IL-6 expression ([2]; TNF-α 1 ng/mL, MMI-0100 1000 or 3000 μM, 6, 12, 24 hours): ineffective in reducing IL-6 expression
- IL-6 expression ([2]; TNF-α 10 ng/mL, 6, 12, 24 hours): reduced IL-6 expression only at a higher dose (1 μM) and only at twenty-four hours after treatment
- IC50 [3]: 5000 nM

Compound: autocamtide-2 related inhibitory peptide [AIP]
- CaMKII activity ([4]; AIP 1 μM): inhibited completely
- IC50 [4]: 100 nM
- PKA activity [5]: not affected
- PKC activity [6]: not affected
- CaMKIV activity [7]: not affected

Reference: patent US20110288036A1, “Methods for Treating or Preventing Vascular Graft Failure” (priority 2010, published 2011)
